Measurements published in PubChem BioAssay AID179 (DTP/NCI, 2004).
pEC50, pIC50: −log10 of the molar value. Active and inactive are the calls of the source.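 How the source made its calls: active means compounds giving half or more protection of infected cells from virus-caused growth loss, again on retest; inactive means the rest.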 Where a SMILES comes first, the peptide text is derived from it.

Test system: CEM cells HIV-1 protection, formazan growth assay
Experiment: NCI AIDS Antiviral Assay
Conditions: for pIC50: measured here: growth of uninfected CEM cells
Summary of the method: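 Five concentrations of each compound were applied to infected and uninfected human CEM cells. Protection from HIV-1 was judged from growth measured with a soluble formazan assay.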

Row | Compound | pEC50 | pIC50 | outcome
1 | CC(=O)n1nc(-c2ccc3ccccc3c2)nc1C | < 3.70 | 4.10 | –
2 | C/C=C/C=C/c1nc(C#N)c(N)o1 | < 3.70 | 4.07 | –
3 | Cn1c(=O)cn[nH]c1=O | < 3.70 | < 3.70 | –
4 | CCO/N=[N+](\[O-])N(CC)CC | < 2.01 | 2.06 | –
5 | CC1SC2=NC3=C(c4ccccc4C3=O)C(c3ccc(Cl)cc3)N2C1=O (configuration not stated) | < 4.45 | < 4.45 | –
6 | Nc1cc(C(=O)O)ccc1SSc1ccc(C(=O)O)cc1N | 4.03 | < 3.70 | –
7 | CC(C)C(=O)CC(c1ccc(Cl)cc1)N1N=C(C(C)C)CC1c1ccc(Cl)cc1 (configuration not stated) | – | – | inactive
8 | O=c1[nH]nc(Cc2ccc([N+](=O)[O-])cc2)[nH]1 | < 3.70 | < 3.70 | –
9 | Cc1cc[n+]2c(c1)-c1cc(C)cc[n+]1CC2 | < 3.70 | 3.79 | –
10 | Cc1c(CC#N)cc(C)c2c3c([nH]c12)-c1ccccc1CC3 | < 4.58 | 4.72 | –
11 | COC(=O)c1cc2ccccc2c2nc3ccccc3c(Cl)c12 | < 5.09 | < 5.09 | –
12 | O=S(=O)(Nc1nnc2c3ccccc3cnn12)c1ccc(F)cc1S | 3.96 | 3.33 | –
13 | CC1C(=O)C(C)C(c2ccco2)N(N=O)C1c1ccco1 (configuration not stated) | < 3.63 | 3.88 | –
14 | CC(c1ccccc1)N1C(=O)CSC1=S (configuration not stated) | – | – | inactive
15 | CC1=NN(C(=O)c2ccccc2)C(C)C1N=Nc1ccccc1C(=O)O (configuration not stated) | – | – | inactive
16 | CCOC(=O)/N=C(\N)SCc1ccccc1 | – | – | inactive
17 | COc1ccc([N+](=O)[O-])c2c(NCCCN(C)C)c(C)c(C)nc12 | < 3.70 | 4.04 | –
18 | COc1cc(/C=C2\CCC/C(=C\c3cc(OC)c(O)c(OC)c3)C2=O)cc(OC)c1O | < 3.70 | 6.03 | –
19 | O=C(O)C#CC(=O)O | < 2.80 | < 2.80 | –
20 | COc1c(O)ccc2oc3cc(O)cc(O)c3c(=O)c12 | < 3.70 | 3.84 | –
21 | C=CS(=O)(=O)c1c2cc(OC)ccc2nc2ccc(OC)cc12 | < 4.70 | 5.54 | –
22 | COC(=O)c1cc(=O)[nH]c2c1c(=O)n(C)c(=O)n2C | < 3.70 | < 3.70 | –

Row | Compound | pEC50 | pIC50 | outcome
23 | CSc1nc(NC2OC(COC(C)=O)C(OC(C)=O)C(OC(C)=O)C2OC(C)=O)c(N=C(C)C(C)=O)c(=O)n1C (configuration not stated) | – | – | inactive
24 | CCCCCCCCCCCCCCCCOP(=O)(O)OCC(N)C(=O)O (configuration not stated) | < 3.70 | 4.73 | –
25 | O=C(/C=C/c1c(O)c2ccccc2[nH]c1=O)CC(=O)C(=O)Nc1cccc(O)c1 | < 3.76 | < 3.76 | –
26 | CC1N=C(SCC(=O)c2ccc(Cl)cc2)N2C(C)N=C(SCC(=O)c3ccc(Cl)cc3)N12 (configuration not stated) | < 4.71 | < 4.71 | –
27 | c1coc(-c2cc(-c3cc(-c4ccco4)on3)no2)c1 | < 3.03 | 3.23 | –
28 | O=COC1CC(n2ccc(=O)[nH]c2=O)OC1CO (configuration not stated) | < 2.34 | 3.58 | –
29 | COC(=O)c1ccc(CN2CCc3c([nH]c4ccccc34)C2CO)o1 (configuration not stated) | < 3.83 | 4.28 | –
30 | CC1(c2ccc(Cl)cc2)c2ccccc2C(=O)N1CCCN1C(=O)c2ccccc2C1=O (configuration not stated) | < 3.70 | 3.71 | –
31 | O=S(=O)(SSS(=O)(=O)c1ccc(Cl)c(Cl)c1)c1ccc(Cl)c(Cl)c1 | < 4.27 | < 4.27 | –
32 | CCN(CC)c1ccc2cc(C(=O)Nc3ccccc3)c(=N)oc2c1 | < 4.00 | < 4.00 | –
33 | CCC(C)C(NC(=O)CNC(=O)C(Cc1cnc[nH]1)NC(=O)C(NC(=O)C(CS)NC(=O)C(CCC(N)=O)NC(=O)C(NC(=O)C(NC(=O)C(CO)NC(=O)C(NC(=O)C(CC(N)=O)NC(=O)C(NC(=O)C(CS)NC(=O)C1CCCN1C(=O)CNC(=O)C(NC(=O)CN)C(C)O)C(C)O)C(C)C)C(C)O)C(C)C)C(C)O)C(=O)NC(CCCN=C(N)N)C(N)=O (configuration not stated) (H-GTGPCTNVSTVQCTHGIR-NH2; configuration not given here) | < 4.30 | < 4.30 | –
34 | CC1(C)CCCC2(C)[C@@H]1CC[C@]13C[C@](C)(CC[C@@H]21)[C@@H]3CO (some centres not stated) | < 4.91 | < 4.91 | –
35 | COC(=O)c1ccc([As](=O)(O)O)cc1C(C)=O | < 3.70 | 3.83 | –
36 | CCN(CCCl)CCCCNc1c2ccccc2nc2ccc(OC)cc12 | – | – | inactive
37 | c1ccc(C2=NN2c2ccccc2)cc1 | – | – | inactive
38 | O=C(Nc1nc(=S)c2c(ncn2CCO)[nH]1)c1ccccc1 | < 3.24 | 4.55 | –
39 | O=C1CCC(N2C(=O)C3C(C2=O)C2(Cl)C(Cl)=C(Cl)C3(Cl)C2(Cl)Cl)C(=O)N1 (configuration not stated) | < 3.70 | < 3.70 | –
40 | c1ccc(N=c2nc(N3CCOCC3)ss2)cc1 | – | – | inactive
41 | O=c1n(-c2ccccc2)c(=O)n2n1C1C=CC2C2C(C1)C2(Cl)Cl (configuration not stated) | – | – | inactive
42 | COc1c(Cl)cc(C(=CCC(=O)O)c2cc(Cl)c(OC)c(C(=O)O)c2)cc1C(=O)O | 4.52 | < 3.70 | –
43 | CC1=NN2C(=O)C(c3ccccc3)SC2=NC(C)(C)C1 (configuration not stated) | < 3.34 | < 3.34 | –
44 | Cc1cc(C)c2c(c1)N[S@@](=O)S2 | < 4.87 | < 4.87 | –

Row | Compound | pEC50 | pIC50 | outcome
45 | C/C(CCn1[nH]c(=O)ccc1=O)=N\NC(=O)C(=O)NN | < 5.71 | < 5.71 | –
46 | CCOP(=S)(OCC)SC(C)(C)C | < 3.97 | < 3.97 | –
47 | NC(=O)CNCCS(=O)(=O)O | < 3.70 | < 3.70 | –
48 | CC(=O)OC1CC2Oc3ccc(C)cc3C(C)(O2)C1=O (configuration not stated) | – | – | inactive
49 | COc1ccc(NS(=O)c2ccc(Cl)cc2)cc1 (configuration not stated) | < 3.70 | 4.76 | –
50 | CC(=O)N1CCC23c4ccccc4N(C)C2CC(=O)CC13 (configuration not stated) | < 3.06 | < 3.06 | –
51 | O=c1[nH]c(=O)n(C2CC(O)C(CO)O2)cc1/C=C/Br (configuration not stated) | < 3.12 | 3.13 | –
52 | CCOC1(OCC)C2C=CC1C(COS(=O)(=O)c1ccc(C)cc1)C2COS(=O)(=O)c1ccc(C)cc1 (configuration not stated) | < 3.70 | 4.85 | –
53 | CC[C@@]1(OC(=O)C(N)CCCCN)C(=O)OCc2c1cc1n(c2=O)Cc2cc3ccccc3nc2-1 (some centres not stated) | < 5.00 | 7.95 | –
54 | CN(C)CC/C=C1\c2ccccc2CSc2ccccc21 | < 3.70 | 4.49 | –
55 | C/C(=N\N=C(N)N)C(CN(C)C)C(c1ccccc1)c1c(O)c2ccccc2oc1=O (configuration not stated) | < 4.39 | 4.76 | –
56 | COc1cc(OC)c(OC)cc1/C=C\c1ccnc2ccccc12 | < 4.51 | 5.83 | –
57 | CON(C)C(C#N)=C(C#N)C#N | < 3.70 | < 3.70 | –
58 | O=C1OC(=O)c2c1cc1cc3c(cc1c2-c1ccc2c(c1)OCO2)OCO3 | – | – | inactive
59 | CCOC(=O)/C(C(=S)Nc1ccccc1)=C(/N)N1CCCC1 | < 3.70 | 4.27 | –
60 | O=C(O)c1[nH]c(=O)[nH]c(=O)c1C(=O)O | < 3.70 | < 3.70 | –
61 | COc1ccc(NC(=O)CC(=O)N2N=C(N(c3ccccc3)c3ccccc3)CC2c2ccccc2)cc1 (configuration not stated) | – | – | inactive
62 | CCOP(=O)(OCC)/C(C#N)=C/c1ccccc1O | < 3.05 | < 3.05 | –
63 | Cc1cccc2c1C(=O)[C@@](C)([C@]1(C)Nc3cccc(C)c3C1=O)N2 | < 3.70 | < 3.70 | –
64 | O=C(CC(=O)N1N=C(N(c2ccccc2)c2ccccc2)CC1c1ccccc1)Nc1ccc(Cl)cc1 (configuration not stated) | – | – | inactive
65 | CNC(=O)c1cc(NC(=O)N(CCC#N)CCN(C(=O)N[C@@H](Cc2ccccc2)C(=O)N[C@@H](CC(C)C)C(=O)NC)c2ccccc2)ccc1OC | < 3.70 | 4.49 | –
